Experiments:
Experiment in all cases: DiscoverX scanEDGE kinase panel
Assay type in all cases: binding
Conditions in all cases: Cmpd Conc 1000 nM, read-out: % Ctrl
[1] = target: T1, PAK2 (Homo sapiens, UniProt Q13177)
T1 construct: purchased DiscoverX (DiscoveRx) KINOMEscan scanEDGE / KdELECT
Excerpt: (§1) We hypothesized that inhibitors of the normal and flipped modes would display distinct selectivity profiles.
(§2) 1. 16 and 21 kinome selectivity data
(§3) (P – phosphorylated; nP – nonphosphorylated; % Ctrl values show the % of DNAEtagged
(§4) kinase which was not displaced from a solid supported ligand by a test compound relative to
(§5) untreated control, quantified by qPCR).
(§6) Please note: ALKs 1, 2, 3, 4, 5 and 6 are listed by their gene symbols: ACVRL1 (ALK1), ACVR1
(§7) (ALK2), BMPR1A (ALK3), ACVR1B (ALK4), TGFBR1 (ALK5) and BMPR1B (ALK6)
(§8) Cmpd DiscoverX Gene Symbol Entrez Gene Symbol % Ctrl Cmpd Conc (nM)

[2] = target: T2, MKNK2 (Homo sapiens, UniProt Q9HBH9)
T2 construct: purchased DiscoverX (DiscoveRx) KINOMEscan scanEDGE / KdELECT
Excerpt: as §1, §2, §3, §4, §5, §6, §7, §8

[3] = target: T3, CHEK1 (Homo sapiens, UniProt O14757)
T3 construct: purchased DiscoverX (DiscoveRx) KINOMEscan scanEDGE / KdELECT
Excerpt: as §1, §2, §3, §4, §5, §6, §7, §8

[4] = target: T4, FGFR2 (Homo sapiens, UniProt P21802)
T4 construct: purchased DiscoverX (DiscoveRx) KINOMEscan scanEDGE / KdELECT
T4 sequence (P21802 22-821): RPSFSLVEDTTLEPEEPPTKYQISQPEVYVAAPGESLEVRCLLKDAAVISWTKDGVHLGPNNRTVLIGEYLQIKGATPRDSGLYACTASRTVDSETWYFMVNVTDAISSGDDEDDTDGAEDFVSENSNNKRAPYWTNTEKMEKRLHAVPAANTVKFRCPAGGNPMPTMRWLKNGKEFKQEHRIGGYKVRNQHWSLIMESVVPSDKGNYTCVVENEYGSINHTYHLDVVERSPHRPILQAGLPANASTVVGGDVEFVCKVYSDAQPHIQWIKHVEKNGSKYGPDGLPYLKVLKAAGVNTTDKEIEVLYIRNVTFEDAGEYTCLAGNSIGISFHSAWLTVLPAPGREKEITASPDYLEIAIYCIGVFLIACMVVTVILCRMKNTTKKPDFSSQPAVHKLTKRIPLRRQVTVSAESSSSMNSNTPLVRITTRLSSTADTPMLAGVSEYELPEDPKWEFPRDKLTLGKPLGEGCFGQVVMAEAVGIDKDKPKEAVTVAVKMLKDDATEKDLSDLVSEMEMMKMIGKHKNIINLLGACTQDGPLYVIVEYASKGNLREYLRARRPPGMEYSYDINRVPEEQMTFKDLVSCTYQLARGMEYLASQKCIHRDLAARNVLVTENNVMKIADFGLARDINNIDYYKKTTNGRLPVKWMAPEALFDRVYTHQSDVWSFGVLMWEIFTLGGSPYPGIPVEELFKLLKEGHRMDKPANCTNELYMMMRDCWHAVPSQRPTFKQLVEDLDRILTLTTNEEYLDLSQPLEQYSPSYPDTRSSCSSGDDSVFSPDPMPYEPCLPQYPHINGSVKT
Excerpt: as §1, §2, §3, §4, §5, §6, §7, §8

[5] = target: T5, ZAP70 (Homo sapiens, UniProt P43403)
T5 construct: purchased DiscoverX (DiscoveRx) KINOMEscan scanEDGE / KdELECT
Excerpt: as §1, §2, §3, §4, §5, §6, §7, §8

[6] = target: T6, ERK1 (Homo sapiens, UniProt P27361)
T6 construct: purchased DiscoverX (DiscoveRx) KINOMEscan scanEDGE / KdELECT
Excerpt: as §1, §2, §3, §4, §5, §6, §7, §8

[7] = target: T7, CSF1R (Homo sapiens, UniProt P07333)
T7 construct: purchased DiscoverX (DiscoveRx) KINOMEscan scanEDGE / KdELECT
Excerpt: as §1, §2, §3, §4, §5, §6, §7, §8

[8] = target: T8, LKB1 (Homo sapiens, UniProt Q15831)
T8 construct: purchased DiscoverX (DiscoveRx) KINOMEscan scanEDGE / KdELECT
Excerpt: as §1, §2, §3, §4, §5, §6, §7, §8

[9] = target: T9, JAK3(JH1domain) (Homo sapiens, UniProt P52333)
T9 construct: JAK3(JH1domain); purchased DiscoverX (DiscoveRx) KINOMEscan scanEDGE / KdELECT
Excerpt: as §1, §2, §3, §4, §5, §6, §7, §8

[10] = target: T10, PIM2 (Homo sapiens, UniProt Q9P1W9)
T10 construct: purchased DiscoverX (DiscoveRx) KINOMEscan scanEDGE / KdELECT
Excerpt: as §1, §2, §3, §4, §5, §6, §7, §8

[11] = target: T11, ULK2 (Homo sapiens, UniProt Q8IYT8)
T11 construct: purchased DiscoverX (DiscoveRx) KINOMEscan scanEDGE / KdELECT
Excerpt: as §1, §2, §3, §4, §5, §6, §7, §8

[12] = target: T12, PKACEalpha (Homo sapiens, UniProt P17612)
T12 construct: purchased DiscoverX (DiscoveRx) KINOMEscan scanEDGE / KdELECT
Excerpt: as §1, §2, §3, §4, §5, §6, §7, §8

[13] = target: T13, PLK1 (Homo sapiens, UniProt P53350)
T13 construct: purchased DiscoverX (DiscoveRx) KINOMEscan scanEDGE / KdELECT
Excerpt: as §1, §2, §3, §4, §5, §6, §7, §8

[14] = target: T14, MEK1 (Homo sapiens, UniProt Q02750)
T14 construct: purchased DiscoverX (DiscoveRx) KINOMEscan scanEDGE / KdELECT
Excerpt: as §1, §2, §3, §4, §5, §6, §7, §8

[15] = target: T15, IKKEbeta (Homo sapiens, UniProt O14920)
T15 construct: purchased DiscoverX (DiscoveRx) KINOMEscan scanEDGE / KdELECT
Excerpt: as §1, §2, §3, §4, §5, §6, §7, §8

[16] = target: T16, IGF1R (Homo sapiens, UniProt P08069)
T16 construct: purchased DiscoverX (DiscoveRx) KINOMEscan scanEDGE / KdELECT
Excerpt: as §1, §2, §3, §4, §5, §6, §7, §8

[17] = target: T17, CSNK1G2 (Homo sapiens, UniProt P78368)
T17 construct: purchased DiscoverX (DiscoveRx) KINOMEscan scanEDGE / KdELECT
Excerpt: as §1, §2, §3, §4, §5, §6, §7, §8

[18] = target: T18, ERBB2 (Homo sapiens, UniProt P04626)
T18 construct: purchased DiscoverX (DiscoveRx) KINOMEscan scanEDGE / KdELECT
Excerpt: as §1, §2, §3, §4, §5, §6, §7, §8

[19] = target: T19, ERBB4 (Homo sapiens, UniProt Q15303)
T19 construct: purchased DiscoverX (DiscoveRx) KINOMEscan scanEDGE / KdELECT
Excerpt: as §1, §2, §3, §4, §5, §6, §7, §8

[20] = target: T20, BMPR1B (ALK6) (Homo sapiens, UniProt O00238)
T20 construct: purchased DiscoverX (DiscoveRx) KINOMEscan scanEDGE / KdELECT
T20 sequence (O00238 14-502): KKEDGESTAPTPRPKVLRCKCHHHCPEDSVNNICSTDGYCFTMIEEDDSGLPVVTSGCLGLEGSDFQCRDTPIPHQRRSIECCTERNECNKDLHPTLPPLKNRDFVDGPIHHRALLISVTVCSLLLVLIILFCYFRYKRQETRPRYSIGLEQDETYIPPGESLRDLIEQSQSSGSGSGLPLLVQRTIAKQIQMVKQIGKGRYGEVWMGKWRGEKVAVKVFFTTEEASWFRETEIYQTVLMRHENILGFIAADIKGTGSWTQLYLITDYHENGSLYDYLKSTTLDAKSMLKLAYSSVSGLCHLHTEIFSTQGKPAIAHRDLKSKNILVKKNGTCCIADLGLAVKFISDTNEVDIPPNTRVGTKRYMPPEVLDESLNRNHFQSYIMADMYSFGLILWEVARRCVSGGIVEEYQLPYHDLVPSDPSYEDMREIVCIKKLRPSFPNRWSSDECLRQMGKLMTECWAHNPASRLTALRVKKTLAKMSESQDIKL
Excerpt: as §1, §2, §3, §4, §5, §6, §7, §8

[21] = target: T21, RET (Homo sapiens, UniProt P07949)
T21 construct: purchased DiscoverX (DiscoveRx) KINOMEscan scanEDGE / KdELECT
Excerpt: as §1, §2, §3, §4, §5, §6, §7, §8

[22] = target: T22, CDK7 (Homo sapiens, UniProt P50613)
T22 construct: purchased DiscoverX (DiscoveRx) KINOMEscan scanEDGE / KdELECT
Excerpt: as §1, §2, §3, §4, §5, §6, §7, §8

[23] = target: T23, MAPKAPK2 (Homo sapiens, UniProt P49137)
T23 construct: purchased DiscoverX (DiscoveRx) KINOMEscan scanEDGE / KdELECT
Excerpt: as §1, §2, §3, §4, §5, §6, §7, §8

[24] = target: T24, PIK3CA (Homo sapiens, UniProt P42336)
T24 construct: purchased DiscoverX (DiscoveRx) KINOMEscan scanEDGE / KdELECT
Excerpt: as §1, §2, §3, §4, §5, §6, §7, §8

[25] = target: T25, PAK1 (Homo sapiens, UniProt Q13153)
T25 construct: purchased DiscoverX (DiscoveRx) KINOMEscan scanEDGE / KdELECT
Excerpt: as §1, §2, §3, §4, §5, §6, §7, §8

[26] = target: T26, FYN (Homo sapiens, UniProt P06241)
T26 construct: purchased DiscoverX (DiscoveRx) KINOMEscan scanEDGE / KdELECT
T26 sequence (P06241 whole entry): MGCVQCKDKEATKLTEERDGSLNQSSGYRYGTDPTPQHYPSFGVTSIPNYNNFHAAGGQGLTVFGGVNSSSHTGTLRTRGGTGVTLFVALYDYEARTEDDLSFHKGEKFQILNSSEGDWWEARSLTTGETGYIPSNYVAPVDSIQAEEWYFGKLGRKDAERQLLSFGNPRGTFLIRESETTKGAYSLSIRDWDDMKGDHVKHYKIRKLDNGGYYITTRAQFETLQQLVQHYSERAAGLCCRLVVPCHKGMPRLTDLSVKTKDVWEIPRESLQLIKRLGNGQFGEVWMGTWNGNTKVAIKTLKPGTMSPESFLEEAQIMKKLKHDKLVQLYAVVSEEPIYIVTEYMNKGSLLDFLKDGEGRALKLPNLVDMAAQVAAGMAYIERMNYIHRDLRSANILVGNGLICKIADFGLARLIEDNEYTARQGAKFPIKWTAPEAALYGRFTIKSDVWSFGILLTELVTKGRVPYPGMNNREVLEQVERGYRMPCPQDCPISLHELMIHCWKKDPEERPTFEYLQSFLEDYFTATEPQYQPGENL
Excerpt: as §1, §2, §3, §4, §5, §6, §7, §8

[27] = target: T27, PLK3 (Homo sapiens, UniProt Q9H4B4)
T27 construct: purchased DiscoverX (DiscoveRx) KINOMEscan scanEDGE / KdELECT
T27 sequence (Q9H4B4 whole entry): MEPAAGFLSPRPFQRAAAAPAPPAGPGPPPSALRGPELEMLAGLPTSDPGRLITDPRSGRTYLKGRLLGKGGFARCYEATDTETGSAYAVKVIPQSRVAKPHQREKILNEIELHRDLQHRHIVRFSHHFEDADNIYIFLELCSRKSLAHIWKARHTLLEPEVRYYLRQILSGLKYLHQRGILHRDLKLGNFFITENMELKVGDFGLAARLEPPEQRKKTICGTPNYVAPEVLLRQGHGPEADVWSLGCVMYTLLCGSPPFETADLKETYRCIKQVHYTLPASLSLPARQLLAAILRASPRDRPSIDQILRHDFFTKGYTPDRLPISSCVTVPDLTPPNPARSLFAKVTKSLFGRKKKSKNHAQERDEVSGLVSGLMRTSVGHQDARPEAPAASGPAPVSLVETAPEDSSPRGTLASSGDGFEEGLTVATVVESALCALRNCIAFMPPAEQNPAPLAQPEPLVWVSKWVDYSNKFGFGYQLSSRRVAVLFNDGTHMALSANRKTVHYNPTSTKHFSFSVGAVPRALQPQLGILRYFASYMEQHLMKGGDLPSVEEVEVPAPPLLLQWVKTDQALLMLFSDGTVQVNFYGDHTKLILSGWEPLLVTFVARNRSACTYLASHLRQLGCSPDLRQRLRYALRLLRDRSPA
Excerpt: as §1, §2, §3, §4, §5, §6, §7, §8

[28] = target: T28, LCK (Homo sapiens, UniProt P06239)
T28 construct: purchased DiscoverX (DiscoveRx) KINOMEscan scanEDGE / KdELECT
Excerpt: as §1, §2, §3, §4, §5, §6, §7, §8

[29] = target: T29, MAP3K4 (Homo sapiens, UniProt Q9Y6R4)
T29 construct: purchased DiscoverX (DiscoveRx) KINOMEscan scanEDGE / KdELECT
Excerpt: as §1, §2, §3, §4, §5, §6, §7, §8

[30] = target: T30, DYRK1B (Homo sapiens, UniProt Q9Y463)
T30 construct: purchased DiscoverX (DiscoveRx) KINOMEscan scanEDGE / KdELECT
Excerpt: as §1, §2, §3, §4, §5, §6, §7, §8

[31] = target: T31, JAK2(JH1domain) (Homo sapiens, UniProt O60674)
T31 construct: JAK2(JH1domain); purchased DiscoverX (DiscoveRx) KINOMEscan scanEDGE / KdELECT
Excerpt: as §1, §2, §3, §4, §5, §6, §7, §8

[32] = target: T32, JNK1 (Homo sapiens, UniProt P45983)
T32 construct: purchased DiscoverX (DiscoveRx) KINOMEscan scanEDGE / KdELECT
T32 sequence (P45983 whole entry): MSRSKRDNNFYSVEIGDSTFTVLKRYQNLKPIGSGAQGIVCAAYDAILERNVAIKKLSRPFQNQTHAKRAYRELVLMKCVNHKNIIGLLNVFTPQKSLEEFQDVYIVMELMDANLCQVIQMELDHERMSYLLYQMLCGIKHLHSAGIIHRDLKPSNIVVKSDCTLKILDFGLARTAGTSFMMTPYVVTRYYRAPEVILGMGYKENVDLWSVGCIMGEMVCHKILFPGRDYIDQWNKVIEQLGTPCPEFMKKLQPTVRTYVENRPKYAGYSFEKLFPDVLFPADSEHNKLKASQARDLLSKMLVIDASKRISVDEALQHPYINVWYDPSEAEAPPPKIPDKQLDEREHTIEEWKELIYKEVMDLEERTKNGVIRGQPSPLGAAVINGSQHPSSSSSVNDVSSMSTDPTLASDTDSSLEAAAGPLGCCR
Excerpt: as §1, §2, §3, §4, §5, §6, §7, §8

[33] = target: T33, NEK6 (Homo sapiens, UniProt Q9HC98)
T33 construct: purchased DiscoverX (DiscoveRx) KINOMEscan scanEDGE / KdELECT
Excerpt: as §1, §2, §3, §4, §5, §6, §7, §8

[34] = target: T34, MINK (Homo sapiens, UniProt Q8N4C8)
T34 construct: purchased DiscoverX (DiscoveRx) KINOMEscan scanEDGE / KdELECT
Excerpt: as §1, §2, §3, §4, §5, §6, §7, §8

[35] = target: T35, AURKB (Homo sapiens, UniProt Q96GD4)
T35 construct: purchased DiscoverX (DiscoveRx) KINOMEscan scanEDGE / KdELECT
Excerpt: as §1, §2, §3, §4, §5, §6, §7, §8

[36] = target: T36, RAF1 (Homo sapiens, UniProt P04049)
T36 construct: purchased DiscoverX
T36 sequence (P04049 whole entry): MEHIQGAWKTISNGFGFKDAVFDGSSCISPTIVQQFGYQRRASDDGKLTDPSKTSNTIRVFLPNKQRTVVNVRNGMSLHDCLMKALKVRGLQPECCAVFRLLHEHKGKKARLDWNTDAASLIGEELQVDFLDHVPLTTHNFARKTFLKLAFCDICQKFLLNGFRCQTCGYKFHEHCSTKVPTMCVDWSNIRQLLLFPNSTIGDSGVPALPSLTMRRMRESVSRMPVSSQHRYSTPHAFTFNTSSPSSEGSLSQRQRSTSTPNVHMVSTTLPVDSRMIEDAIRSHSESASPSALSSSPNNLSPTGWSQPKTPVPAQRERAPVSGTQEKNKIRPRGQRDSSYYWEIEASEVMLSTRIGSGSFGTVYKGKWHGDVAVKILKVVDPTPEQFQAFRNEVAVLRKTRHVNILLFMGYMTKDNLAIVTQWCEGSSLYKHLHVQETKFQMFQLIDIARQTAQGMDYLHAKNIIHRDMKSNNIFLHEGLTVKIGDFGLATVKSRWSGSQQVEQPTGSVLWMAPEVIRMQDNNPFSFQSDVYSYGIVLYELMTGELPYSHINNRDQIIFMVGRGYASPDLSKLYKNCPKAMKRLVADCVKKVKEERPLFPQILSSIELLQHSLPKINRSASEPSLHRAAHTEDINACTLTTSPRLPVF
Excerpt: as §1, §2, §3, §4, §5, §6, §7, §8

[37] = target: T37, MKNK1 (Homo sapiens, UniProt Q9BUB5)
T37 construct: purchased DiscoverX (DiscoveRx) KINOMEscan scanEDGE / KdELECT
Excerpt: as §1, §2, §3, §4, §5, §6, §7, §8

[38] = target: T38, INSR (Homo sapiens, UniProt P06213)
T38 construct: purchased DiscoverX (DiscoveRx) KINOMEscan scanEDGE / KdELECT
T38 sequence (P06213 28-1382): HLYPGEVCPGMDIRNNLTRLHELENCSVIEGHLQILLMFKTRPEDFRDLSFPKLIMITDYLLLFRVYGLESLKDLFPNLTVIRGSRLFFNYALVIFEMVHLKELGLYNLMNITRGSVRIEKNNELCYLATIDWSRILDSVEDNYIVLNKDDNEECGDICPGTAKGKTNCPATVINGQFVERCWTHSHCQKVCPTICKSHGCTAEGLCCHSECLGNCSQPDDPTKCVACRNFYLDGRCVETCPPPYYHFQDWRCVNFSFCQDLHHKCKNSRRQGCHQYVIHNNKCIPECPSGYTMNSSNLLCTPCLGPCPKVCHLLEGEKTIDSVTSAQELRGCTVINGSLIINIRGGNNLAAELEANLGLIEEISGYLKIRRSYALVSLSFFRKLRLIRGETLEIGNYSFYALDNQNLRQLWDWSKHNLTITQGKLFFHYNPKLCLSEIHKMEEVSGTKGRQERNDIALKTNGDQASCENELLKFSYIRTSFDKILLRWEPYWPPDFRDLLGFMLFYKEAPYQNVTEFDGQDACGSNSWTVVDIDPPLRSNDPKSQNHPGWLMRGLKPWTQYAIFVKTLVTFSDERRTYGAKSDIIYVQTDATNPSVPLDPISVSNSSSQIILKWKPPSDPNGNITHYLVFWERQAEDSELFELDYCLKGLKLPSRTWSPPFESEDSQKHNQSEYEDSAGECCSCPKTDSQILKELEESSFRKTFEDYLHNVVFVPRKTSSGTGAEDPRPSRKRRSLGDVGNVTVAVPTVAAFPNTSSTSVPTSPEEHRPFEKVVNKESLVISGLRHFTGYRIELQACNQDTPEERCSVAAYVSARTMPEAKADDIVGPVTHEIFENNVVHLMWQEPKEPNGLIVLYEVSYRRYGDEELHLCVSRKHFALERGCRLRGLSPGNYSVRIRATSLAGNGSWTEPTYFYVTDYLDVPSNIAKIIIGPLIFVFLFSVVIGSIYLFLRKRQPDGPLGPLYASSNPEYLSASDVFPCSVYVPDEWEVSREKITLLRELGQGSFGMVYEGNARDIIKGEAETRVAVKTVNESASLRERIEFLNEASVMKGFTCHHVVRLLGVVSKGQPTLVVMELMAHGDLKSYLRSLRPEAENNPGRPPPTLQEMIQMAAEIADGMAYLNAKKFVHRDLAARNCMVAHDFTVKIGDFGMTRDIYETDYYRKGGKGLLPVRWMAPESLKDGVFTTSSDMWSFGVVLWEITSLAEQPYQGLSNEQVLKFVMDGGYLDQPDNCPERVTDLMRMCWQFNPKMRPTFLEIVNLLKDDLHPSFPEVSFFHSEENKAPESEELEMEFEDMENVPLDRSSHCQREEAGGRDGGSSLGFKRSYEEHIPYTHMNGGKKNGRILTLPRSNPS
Excerpt: as §1, §2, §3, §4, §5, §6, §7, §8

[39] = target: T39, SIK2 (Homo sapiens, UniProt Q9H0K1)
T39 construct: purchased DiscoverX (DiscoveRx) KINOMEscan scanEDGE / KdELECT
Excerpt: as §1, §2, §3, §4, §5, §6, §7, §8

remaining binding at 1 µM [1]: 54%
remaining binding at 1 µM [2]: 100%
remaining binding at 1 µM [3]: 100%
remaining binding at 1 µM [4]: 100%
remaining binding at 1 µM [5]: 100%
remaining binding at 1 µM [6]: 97%
remaining binding at 1 µM [7]: 91%
remaining binding at 1 µM [8]: 96%
remaining binding at 1 µM [9]: 98%
remaining binding at 1 µM [10]: 89%
remaining binding at 1 µM [11]: 93%
remaining binding at 1 µM [12]: 89%
remaining binding at 1 µM [13]: 86%
remaining binding at 1 µM [14]: 89%
remaining binding at 1 µM [15]: 84%
remaining binding at 1 µM [16]: 100%
remaining binding at 1 µM [17]: 90%
remaining binding at 1 µM [18]: 100%
remaining binding at 1 µM [19]: 100%
remaining binding at 1 µM [20]: 4.1%
remaining binding at 1 µM [21]: 92%
remaining binding at 1 µM [22]: 97%
remaining binding at 1 µM [23]: 96%
remaining binding at 1 µM [24]: 100%
remaining binding at 1 µM [25]: 71%
remaining binding at 1 µM [26]: 100%
remaining binding at 1 µM [27]: 90%
remaining binding at 1 µM [28]: 98%
remaining binding at 1 µM [29]: 100%
remaining binding at 1 µM [30]: 90%
remaining binding at 1 µM [31]: 99%
remaining binding at 1 µM [32]: 100%
remaining binding at 1 µM [33]: 100%
remaining binding at 1 µM [34]: 51%
remaining binding at 1 µM [35]: 97%
remaining binding at 1 µM [36]: 88%
remaining binding at 1 µM [37]: 92%
remaining binding at 1 µM [38]: 100%
remaining binding at 1 µM [39]: 96%
SMILES: O=c1c2cc(-c3ccnc4ccccc34)ccc2ncn1-c1ccc(N2CCOCC2)cc1 [compound 16, 3-(4-Morpholinophenyl)-6-(quinolin-4-yl)quinazolin-4(3H)-one]

— publication PMC6109843, “Novel Quinazolinone Inhibitors of ALK2 Flip between Alternate Binding Modes: Structure–Activity Relationship, Structural Characterization, Kinase Profiling, and Cellular Proof of Concept” (Journal of Medicinal Chemistry, 2018)
